In the supplement of paper PMC11061612:

Key:
Experiment in all cases: Bliss excess, mean over the matrix (fraction); higher = more synergy
[1] = tested on: TE-9 (Esophageal Squamous Cell Carcinoma)
In short: (§1)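 Bliss excess equals the observed combination effect minus the expected value EA + EB − EA·EB, where EA and EB are the effects of each agent alone. Combination Emax is the second-highest inhibition within the matrix. Inhibition was scaled from CellTiter-Glo 2.0 luminescence, with 0 set by vehicle wells and 1 by blank wells, after 72 hours of two-drug dosing of cells plated in 1536-well plates.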

[2] = tested on: CCRF-CEM (T-Lymphoblastic Leukemia)
In short: as §1

[3] = tested on: NCI-H82 (Small Cell Lung Carcinoma)
In short: as §1

[4] = tested on: Calu-3 (Lung Adenocarcinoma)
In short: as §1

[5] = tested on: ME-1 (Acute Myeloid Leukemia)
In short: as §1

[6] = tested on: ES4 (Ewing's Sarcoma)
In short: as §1

[7] = tested on: EC-GI-10 (Esophageal Squamous Cell Carcinoma)
In short: as §1

[8] = tested on: OVCA420 (Ovarian Carcinoma)
In short: as §1

[9] = tested on: KELLY (Neuroblastoma)
In short: as §1

[10] = tested on: MFE-296 (Endometrial Carcinoma)
In short: as §1

[11] = tested on: Daoy (Other Solid Carcinomas)
In short: as §1

[12] = tested on: DoTc2-4510 (Cervical Carcinoma)
In short: as §1

[13] = tested on: CaR-1 (Colorectal Carcinoma)
In short: as §1

[14] = tested on: LB831-BLC (Bladder Carcinoma)
In short: as §1

[15] = tested on: HOS (Osteosarcoma)
In short: as §1

[16] = tested on: LS-180 (Colorectal Carcinoma)
In short: as §1

[17] = tested on: HCC-78 (Lung Adenocarcinoma)
In short: as §1

[18] = tested on: T98G (Glioblastoma)
In short: as §1

[19] = tested on: KYSE-520 (Esophageal Squamous Cell Carcinoma)
In short: as §1

Compound | Bliss excess [1] | Bliss excess [2] | Bliss excess [3] | Bliss excess [4] | Bliss excess [5] | Bliss excess [6] | Bliss excess [7] | Bliss excess [8] | Bliss excess [9] | Bliss excess [10] | Bliss excess [11] | Bliss excess [12] | Bliss excess [13] | Bliss excess [14] | Bliss excess [15] | Bliss excess [16] | Bliss excess [17] | Bliss excess [18] | Bliss excess [19]
CN(C)CCCOc1ccc(-c2ccc3ncc4c(c3c2)n(C2CCOCC2)c(=O)n4C)cn1 [AZD0156] + C=CCn1c(=O)c2cnc(Nc3ccc(N4CCN(C)CC4)cc3)nc2n1-c1cccc(C(C)(C)O)n1 [AZD1775] (first compound max 1 µM, partner max 1 µM) | -0.0422 | 0.0192 | -0.0283 | -0.0378 | -0.0276 | 0.0122 | -0.0001 | -0.0225 | -0.0002 | -0.0553 | -0.0151 | -0.0204 | -0.0445 | -0.104 | -0.0196 | -0.0459 | 0.0011 | -0.0598 | -0.0232
CN(C)CCCOc1ccc(-c2ccc3ncc4c(c3c2)n(C2CCOCC2)c(=O)n4C)cn1 [AZD0156] + CCN(CCO)CCCOc1ccc2c(Nc3cc(CC(=O)Nc4cccc(F)c4)[nH]n3)ncnc2c1 [AZD2811] (first compound max 1 µM, 7x7, partner max 1 µM) | -0.0214 | 0.0045 | 0.0315 | -0.0295 | -0.0275 | 0.03 | 0.0507 | -0.0308 | 0.0099 | -0.0356 | 0.0069 | -0.0111 | -0.0097 | -0.0356 | -0.0186 | -0.0264 | -0.0058 | -0.0655 | 0.005
CN(C)CCCOc1ccc(-c2ccc3ncc4c(c3c2)n(C2CCOCC2)c(=O)n4C)cn1 [AZD0156] + C[C@@H]1COCCN1C2=NC(=NC(=C2)C3(CC3)[S@](=N)(=O)C)C4=C5C=CNC5=NC=C4 [AZD6738] (first compound max 1 µM, 7x7, partner max 10 µM) | -0.0034 | 0.0002 | 0.0286 | -0.0205 | -0.107 | 0.0618 | 0.0263 | 0.0052 | 0.0044 | -0.0485 | 0.0287 | 0.0037 | -0.0449 | -0.0333 | 0.024 | -0.0347 | -0.0031 | -0.0297 | -0.0172
C=CCn1c(=O)c2cnc(Nc3ccc(N4CCN(C)CC4)cc3)nc2n1-c1cccc(C(C)(C)O)n1 [AZD1775] + C[C@@H]1COCCN1C2=NC(=NC(=C2)C3(CC3)[S@](=N)(=O)C)C4=C5C=CNC5=NC=C4 [AZD6738] (first compound max 1 µM, partner max 10 µM) | 0.0638 | 0.0391 | – | -0.0181 | -0.0241 | 0.0417 | 0.0535 | 0.0441 | -0.0161 | 0.0428 | 0.0863 | 0.0479 | 0.0177 | 0.0042 | 0.106 | -0.0098 | 0.0101 | -0.0178 | -0.003
C=CCn1c(=O)c2cnc(Nc3ccc(N4CCN(C)CC4)cc3)nc2n1-c1cccc(C(C)(C)O)n1 [AZD1775] + O=C(c1cc(Cc2n[nH]c(=O)c3ccccc23)ccc1F)N1CCN(C(=O)C2CC2)CC1 [Olaparib] (first compound max 1 µM, partner max 10 µM) | -0.0271 | -0.0381 | -0.0098 | -0.0243 | -0.0873 | 0.0199 | -0.0245 | 0.0916 | 0.0038 | -0.0218 | 0.044 | -0.0634 | -0.0077 | -0.01 | -0.0389 | -0.0188 | -0.029 | -0.113 | -0.0301
CCN(CCO)CCCOc1ccc2c(Nc3cc(CC(=O)Nc4cccc(F)c4)[nH]n3)ncnc2c1 [AZD2811] + C=CCn1c(=O)c2cnc(Nc3ccc(N4CCN(C)CC4)cc3)nc2n1-c1cccc(C(C)(C)O)n1 [AZD1775] (first compound max 1 µM, partner max 1 µM) | -0.0285 | 0.006 | 0.0241 | -0.0306 | -0.0812 | -0.0024 | 0.0411 | -0.0047 | 0.0569 | -0.0245 | 0.026 | -0.0323 | -0.0165 | 0.005 | 0.0066 | 0.0269 | 0.0092 | -0.0167 | -0.0048
CCN(CCO)CCCOc1ccc2c(Nc3cc(CC(=O)Nc4cccc(F)c4)[nH]n3)ncnc2c1 [AZD2811] + C[C@@H]1COCCN1C2=NC(=NC(=C2)C3(CC3)[S@](=N)(=O)C)C4=C5C=CNC5=NC=C4 [AZD6738] (first compound max 1 µM, 7x7, partner max 10 µM) | -0.009 | -0.0295 | -0.0406 | -0.0169 | -0.0813 | -0.0042 | 0.0182 | -0.0777 | -0.042 | -0.0728 | -0.0153 | -0.0481 | -0.0528 | -0.0744 | -0.0432 | -0.0723 | 0.0099 | -0.0645 | -0.0323
CCN(CCO)CCCOc1ccc2c(Nc3cc(CC(=O)Nc4cccc(F)c4)[nH]n3)ncnc2c1 [AZD2811] + O=C(c1cc(Cc2n[nH]c(=O)c3ccccc23)ccc1F)N1CCN(C(=O)C2CC2)CC1 [Olaparib] (first compound max 1 µM, 7x7, partner max 10 µM) | -0.0111 | -0.0134 | 0.022 | 0.0047 | 0.0119 | -0.0138 | 0.0377 | 0.0008 | -0.0359 | -0.011 | 0.0678 | 0.0035 | 0.0213 | 0.0083 | -0.0188 | 0.0636 | 0.0013 | 0.0112 | -0.0217
